Assay results reported in patent US7569554B2, “Synergistic treatment of cancer using immunomers in conjunction with therapeutic agents” (Idera Pharmaceuticals, Inc., priority 2003, dated 2009).

Experiments:
[1] = tested on: Her-2 overexpressing human breast tumors (BT474); assay: Example 23 tumor model, Rituxan and/or IMO 2; format: in vivo, mouse; conditions: Rituxan days 5, 7, 9, 11; IMO 2 days 5, 7, 9, 11, 13; FIG. 30
Description: Nude mice bearing subcutaneously implanted Her-2 overexpressing human breast tumors (BT474). Tumor bearing mice were treated by intraperitoneal injections of Rituxan on days 5, 7, 9 and 11 and/or IMO 2 on days 5, 7, 9, 11 and 13.

[2] = tested on: CT26.WT; assay: Peritoneal disseminated CT26.WT tumor, survival; format: in vivo, mouse; conditions: peritoneal administration, 1 mg/kg; FIG. 17B
Description: (§1) For peritoneal disseminated tumor model, 3×10^5 CT26.WT or CT26.CL25 cells and 5×10^4 B16.F0 cells were injected i.p to BALB/c or C57BL/6 mice respectively. […] Mice were checked daily for tumor growth and for survival. Each dose group had 6 to 10 mice.

[3] = Total serum IgG1 and IgG2a in B16.F0 tumor bearing C57BL/6 mice; format: in vivo, mouse; conditions: compared with control non-CpG DNA
Description: For the analysis of serum antibodies, 96 well plates were incubated at room temperature for 3 hours with β-gal protein (Calbiochem Novabiochem, Pasadena, Calif.) at 2 μg/ml in phosphate buffered saline (PBS). The solid phase was incubated overnight at 4° C. with normal mouse serum (NMS) or antiserum, or β-gal specific monoclonal Ab (Calbiochem Novabiochem, Pasadena, Calif.) followed by an incubation with horseradish peroxidase (HRP)-conjugated antibodies specific for mouse IgG (H+L). For isotype analysis, HRP-labelled goat anti-mouse IgG1 and IgG2a (Southern Biotechnology, Birmingham, Ala.) were used. The binding of antibodies was measured as absorbance at 405 nm after reaction of the immune complexes with ABTS substrate (Zymed, San Francisco, Calif.).

[4] = tested on: CD69+ and CD86+ cells; assay: Activation of CD69+ and CD86+ cells in peripheral blood; format: in vivo, mouse; conditions: docetaxel 30 mg/kg days 1 and 3, IMO 2 5 mg/kg days 1, 3, 5, 7; FIG. 24C
[5] = In vitro cytokine induction profiles of IMO compounds (FIG. 16); format: cell-based
[6] = tested on: 4T1 breast tumor; assay: 4T1 breast tumor in BALB/c mice, combination with doxorubicin; format: in vivo, mouse; conditions: IMO 2 1 mg/kg peritumoral, doxorubicin 30 mg/kg i.p; FIG. 24A
Description: For the 4T1 tumor models, 5×10^5 cells/mouse in. 100 μl PBS were implanted into BALB/c mice in the lower right flank. On day 5 when the average tumor size reached 50 mm^2, the mice were given i.p injections of 30 mg/kg doxorubicin (Bedford lab, Bedford, Ohio) for three times on days 5, 6 and 7. IMO 2 (1 mg/kg) dissolved in 100 μl PBS was administrated by peritumoral injection at twice a week interval for a total of six times.

[7] = tested on: BALB/c mice; assay: In vivo serum cytokine induction; design: species or system mouse
Description: To assess serum cytokine levels, BALB/c mice (n=5) were injected intraperitoneally (i.p), subcutaneously (s.c) or intramuscularly (i.m) with IMO compounds at 10 mg/kg (single dose). Sera was collected by retro-orbital bleeding at 4 hrs of IMO administration and determined IL-112 and IL-6 by sandwich ELISA. Cytokine antibodies and standards were purchased from PharMingen (San Diego, Calif.).
To evaluate the immunopharmacological effects in vivo, IMO compounds, CpG immunomers, and non-CpG oligos were administered to BALB/c mice i.p, s.c or i.m at a dose of 10 mg/kg and their serum was evaluated for IL-12 and IL-6 after 4 hrs.

[8] = tested on: B16.F0 melanoma; assay: B16.F0 melanoma in wt, IL-6 ko and IL-12 ko C57BL/6 mice; format: in vivo, mouse; conditions: FIG. 23
Description: Female BALB/c (H-2^d), C57BL/6, and IL-6 and IL-12 knockout (ko) (both ko on a C57BL/6 background) mice 5-8 weeks of age, were purchased from Jackson Laboratory (Bar Harbor, Me.). CT26.WT (ATCC, Rockville, Md.) is a carcinogen-induced BALB/c undifferentiated colon carcinoma. CT26.CL25 (ATCC, Rockville, Md.) is a subclone of CT26.WT that has been transduced with Escherichia coli β-gal gene. 4T1 is a mammary adenocarcinoma cell line in BALB/c mice. B16.F0 is a C57BL/6 derived melanoma (ATCC). CT26.WT and 4T1 cells were cultured in RPMI 1640, 10% heat-inactivated fetal bovine serum (FBS, Atlas Biologicals, Fort Colins, Colo.), 2 mM L-glutamine, 100 μg/ml streptomycin, 100 U/ml penicillin (Mediatech, Va.). CT26.CL25 is maintained in the same medium plus 400 μg/ml G418 sulfate (Life Technologies, Grand Island, N.Y.). B 16.F0 cells were grown in DMEM containing 10% FBS and antibiotics.
For peritoneal disseminated tumor model, 3×10^5 CT26.WT or CT26.CL25 cells and 5×10^4 B16.F0 cells were injected i.p to BALB/c or C57BL/6 mice respectively. IMO compounds or non-CpG DNA (2.5 mg/kg) were administrated i.p. twice per week starting on day 1 for a total of 5 times. Mice were checked daily for tumor growth and for survival. Each dose group had 6 to 10 mice.

[9] = tested on: CT26.CL25; assay: Peritoneal disseminated CT26.CL25 tumor, survival; format: in vivo, mouse; conditions: peritoneal administration, 1 mg/kg; FIG. 17C
Description: as §1

[10] = tested on: CT26.WT and CT26.CL25 tumors; assay: Rechallenge of long term survivors with CT26.WT or CT26.CL25; format: in vivo, mouse
Description: (§2) Long term survivors (n=5) of IMO compound treated mice with CT26.WT or CT26.CL25 peritoneal tumor were rechallenged i.p. or i.v. with 5×10^5 of the parental tumor cells without any further treatment. To evaluate the specificity of the IMO induced antitumor response in tumor bearing mice, these long term survivors (n=5) were also rechallenged with syngeneic, non-organ-related mammary tumor 4T1 (5×10^5). For i.v. rechallenged groups, mice were sacrificed on day 13, lungs were harvested and lung metastases were counted.

[11] = tested on: CT26.CL25 colon tumor; assay: Subcutaneous CT26.CL25 colon tumor in BALB/c mice; format: in vivo, mouse; conditions: day 24, compared with non-CpG DNA treated mice; 1 mg/kg peritumoral
Description: (§3) For subcutaneous solid tumor models, 10^6 CT26.CL25 cells/mouse or 5×10^5 B16.F0 cells/mouse in 100 μl of PBS were implanted into BALB/c or C57BL/6 mice in the lower right flank. The tumor size reached to 50 to 200 mg on day 6 for CT26.CL25 and on day 8 for B16.F0 post tumor inoculation. The tumor bearing mice were then treated with peritumoral injection of IMO compounds or non-CpG DNA control at a dose of 1 mg/kg every other day for 10 times. Tumor growth was recorded with the use of calipers, by measuring the long and short diameters of the tumor. Tumor volumes were measured with a caliper and the formula (0.5×length×width^2) was applied to determine tumor growth kinetics.
The antitumor activity of IMO compounds in a murine colon carcinoma CT26.CL25 model was evaluated. BALB/c mice bearing CT26.CL25 subcutaneous solid tumors were treated with 1 mg/kg IMO compounds by peritumoral administration every other day for 10 times starting on day 6 following tumor inoculation.

[12] = tested on: CT26.CL25 tumor cells; assay: Adoptive transfer of splenocytes, CT26.CL25 challenge; format: in vivo, mouse; conditions: FIG. 21A
Description: (§4) To study adoptive immune cell transfer, BALB/c mice were adoptively i.p. transferred with 5×10^6 of syngeneic splenocytes either from naïve BALB/c mice or from IMO treated long term survivors bearing CT26.WT or CT26.CL25, the mice (5/group) were then cross challenged i.p. with 3×10^5 CT26.WT, CT26.CL25 or 4T1 cells on day 3.

[13] = tested on: 4T1 tumor cells; assay: Adoptive transfer of splenocytes, 4T1 challenge; format: in vivo, mouse; conditions: FIG. 21B
Description: as §4

[14] = tested on: B16.F0 melanoma; assay: Subcutaneous B16.F0 melanoma in C57BL/6 mice; format: in vivo, mouse; conditions: 1 mg/kg peritumoral every other day for 10 times from day 8; FIG. 22A
Description: as §3
IMO 2 was further tested for its antitumor activity in mice bearing B 16.F0 murine melanoma. C57BL/6 mice bearing B16.F0 melanoma were treated with 1 mg/kg IMO 2 by peritumoral administration every other day for 10 times starting on day 8 following tumor inoculation.

[15] = tested on: 4T1 mammary carcinoma; assay: Rechallenge of long term survivors with 4T1; format: in vivo, mouse; conditions: FIG. 20C
Description: as §2

[16] = tested on: Her-2 overexpressing human breast tumors (BT474); assay: Her-2 overexpressing human breast tumors (BT474) in nude mice, combination with Herceptin; format: in vivo, mouse; conditions: compared to the PBS control group; Herceptin 10 mg/kg i.p, IMO 1 mg/kg peritumoral, twice a week for 6 weeks; FIG. 29
[17] = Intramuscular (i.m), 10 mg/kg, 4 hrs
[18] = Intraperitoneal (i.p), 10 mg/kg, 4 hrs
[19] = Subcutaneous (s.c), 10 mg/kg, 4 hrs

With “IMO 2: IMO compound of FIG. 15 (SEQ ID NO 24) containing a synthetic CpR motif, mouse-specific immunostimulatory motif (DNA TCTGACNTTCT; synthetic CpR motif, chemistry not fully specified)” the Tumor growth [1] was “significantly inhibited”, the Mice survival [2] was “marked increase of mice survival” and the “Total IgG1 levels” value ([3]; FIG. 22B) was “decrease or no change”. The “Total circulating serum IgG2a” value ([3]; FIG. 22C) was “significant increase”, the “Percentage of CD69+ and CD86+ cells” value [4] was “significant increase in the percentage of CD69+ and CD86+cells” and the “IL-6 production in vitro” value [5] was “lower IL-6 production”. The “IL-12 secretion in vitro” value [5] was “strong IL-12 secretion”, the “Inhibition of 4T1 tumor growth” value [6] was “strong inhibition” and the “Serum IL-6 induction” value ([7]; 10 mg/kg, all three routes of administration, 4 hrs) was “significantly lower serum IL-6”. For the same substance, the “Serum IL-12 secretion in mice” value ([7]; 4 hr after administration, FIG. 25B) was “induced IL-12 secretion”, the “IL-6 (serum)” value [7, 17] was 1.2 ± 0.1 ng/mL and the “IL-12 (serum)” value [7, 17] was 87.9 ± 3.2 ng/mL. For the same substance, the “IL-6 (serum)” value [7, 18] was 2.5 ± 0.2 ng/mL, the “IL-12 (serum)” value [7, 18] was 51.7 ± 0.9 ng/mL and the “IL-6 (serum)” value [7, 19] was 2.3 ± 0.4 ng/mL. For the same substance, the “IL-12 (serum)” value [7, 19] was 136.9 ± 17 ng/mL, the Tumor growth ([8]; IL-6 ko C57BL/6 mice) was “significant reduction in tumor growth” and the Tumor growth ([8]; wt C57BL/6 mice) was “significant reduction in tumor growth”. The Mice survival [9] was “marked increase of mice survival”, the “Rejection of pulmonary metastases after i.v. inoculation” value ([10]; data not shown) was “able to reject pulmonary metastases of the same tumor” and the “Protection against i.p rechallenge” value ([10]; mice cleared of CT26.CL25 peritoneal tumor, FIGS. 20A and B) was “rejected i.p rechallenge with CT26.WT and CT26.CL25 tumors”. For the same substance, the “Average tumor growth inhibition” value [11] was 85%, the “Protection by transferred splenocytes against CT26.CL25 challenge” value [12] was “protective against a lethal tumor challenge” and the “Protection by transferred splenocytes against 4T1 challenge” value [13] was “did not extend to 4T1 tumor cell challenge”. The Tumor growth inhibition [14] was 71%, the “Protection against 4T1 mammary carcinoma challenge” value [15] was “not protected” and the Tumor growth inhibition [16] was 65%.
